Results from ChEMBL document CHEMBL4385604, “Identification of Pyrrolo[2,3- d]pyrimidine-Based Derivatives as Potent and Orally Effective Fms-like Tyrosine Receptor Kinase 3 (FLT3) Inhibitors for Treating Acute Myelogenous Leukemia” (J Med Chem, 2019).
Active and inactive are the calls of the source. The rule behind the calls is not given here.

Key:
[1] = system: MOLM-13; test: animal or person; conditions: Mus musculus, MOLM-13, po, read-out: TGI
Description: Antitumour activity against human MOLM13 cells xenografted in NOD/SCID mouse assessed as tumour growth inibition at 3 mg/kg, po qd for 10 days measured every two days during compound dosing by caliper method relative to control

[2] = system: MV4-11; test: Antitumour activity against human MV4-11 cells xenografted in NOD/SCID mouse assessed as tumour growth inhibition at 10 mg/kg, po qd for 18 days measured on day 24 by caliper method; format: functional, organism-based
[3] = system: MV4-11; test: Induction of apoptosis in human MV4-11 cells assessed as necrotic cells at 10 uM after 48 hrs by Annexin V/propidium iodide staining based flow cytometry (reference value: 0.06%); format: functional
[4] = system: MV4-11; test: Induction of apoptosis in human MV4-11 cells assessed as viable cells at 10 nM after 48 hrs by Annexin V/propidium iodide staining based flow cytometry (reference value: 94.4%); format: functional; conditions: MV4-11, 48 h, read-out: Activity
[5] = system: MV4-11; test: Inhibition of MAPK in human MV4-11 cells assessed as ratio of phosphorylated ERK to beta-actin level at 100 nM after 2 hrs by Western blot analysis relative to control; format: cell-based
[6] = species: Homo sapiens; test: Selectivity ratio of IC50 for recombinant human c-Kit (544 to end residues) to IC50 for recombinant human FLT3 (564 to end residues)
[7] = system: MV4-11; test: Induction of apoptosis in human MV4-11 cells assessed as early apoptotic cells at 10 nM after 48 hrs by Annexin V/propidium iodide staining based flow cytometry (reference value: 2.76%); format: functional
[8] = system: MV4-11; test: Induction of apoptosis in human MV4-11 cells assessed as early apoptotic cells at 10 uM after 48 hrs by Annexin V/propidium iodide staining based flow cytometry (reference value: 2.76%); format: functional
[9] = system: MV4-11; test: Antitumour activity against human MV4-11 cells xenografted in NOD/SCID mouse assessed as tumour growth inhibition at 1 mg/kg, po qd for 14 days measured every two days during compound dosing by caliper method relative to control; format: functional; conditions: MV4-11, po, read-out: TGI
[10] = system: MOLM-13; test: Induction of apoptosis in human MOLM13 cells assessed as late apoptotic cells at 1 nM after 48 hrs by Annexin V/propidium iodide staining based flow cytometry (reference value: 5.52%); format: functional
[11] = system: Receptor-type tyrosine-protein kinase FLT3 (Homo sapiens), P36888 [UNDEFINED MUTATION]; test: Inhibition of FLT3 ITD mutant in human MOLM13 cells assessed as ratio of phosphorylated STAT5 to beta-actin level at 30 nM after 2 hrs by Western blot analysis relative to control; format: cell-based
[12] = system: MOLM-13; test: Induction of apoptosis in human MOLM13 cells assessed as early apoptotic cells at 1 uM after 48 hrs by Annexin V/propidium iodide staining based flow cytometry (reference value: 5.97%); format: functional
[13] = system: MV4-11; test: Induction of apoptosis in human MV4-11 cells assessed as early apoptotic cells at 1 uM after 48 hrs by Annexin V/propidium iodide staining based flow cytometry (reference value: 2.76%); format: functional
[14] = system: MOLM-13; test: Cell cycle arrest in human MOLM13 cells assessed as accumulation at S phase at 10 nM after 24 hrs by propidium iodide staining-based flow cytometric analysis (reference value: 41.95%); format: functional
[15] = target: Receptor-type tyrosine-protein kinase FLT3 (Homo sapiens) (UniProt P36888); test: Inhibition of FLT3 autophosphorylation in human MOLM13 cells assessed as ratio of phosphorylated FLT3 to beta-actin level at 100 nM after 2 hrs by Western blot analysis relative to control; format: cell-based
[16] = system: MOLM-13; test: Cell cycle arrest in human MOLM13 cells assessed as accumulation at S phase at 3 nM after 24 hrs by propidium iodide staining-based flow cytometric analysis (reference value: 41.95%); format: functional
[17] = system: MOLM-13; test: Induction of apoptosis in human MOLM13 cells assessed as early apoptotic cells at 10 uM after 48 hrs by Annexin V/propidium iodide staining based flow cytometry (reference value: 5.97%); format: functional
[18] = system: MV4-11; test: Induction of apoptosis in human MV4-11 cells assessed as necrotic cells at 1 uM after 48 hrs by Annexin V/propidium iodide staining based flow cytometry (reference value: 0.06%); format: functional
[19] = system: MOLM-13; test: Induction of apoptosis in human MOLM13 cells assessed as early apoptotic cells at 1 nM after 48 hrs by Annexin V/propidium iodide staining based flow cytometry (reference value: 5.97%); format: functional
[20] = system: MV4-11; test: Cell cycle arrest in human MV4-11 cells assessed as accumulation at S phase at 1 nM after 24 hrs by propidium iodide staining-based flow cytometric analysis (reference value: 30.12%); format: functional
[21] = species: Homo sapiens; test: Inhibition of MAPK in human MOLM13 cells assessed as ratio of phosphorylated ERK to beta-actin level at 30 nM after 2 hrs by Western blot analysis relative to control; format: cell-based
[22] = target: T1, Receptor-type tyrosine-protein kinase FLT3 (Homo sapiens, UniProt P36888); test: Binding affinity to wild-type human partial length FLT3 (V592 to Y969 residues) expressed in Escherichia coli after 1 hr by qPCR analysis
T1 sequence (P36888 whole entry): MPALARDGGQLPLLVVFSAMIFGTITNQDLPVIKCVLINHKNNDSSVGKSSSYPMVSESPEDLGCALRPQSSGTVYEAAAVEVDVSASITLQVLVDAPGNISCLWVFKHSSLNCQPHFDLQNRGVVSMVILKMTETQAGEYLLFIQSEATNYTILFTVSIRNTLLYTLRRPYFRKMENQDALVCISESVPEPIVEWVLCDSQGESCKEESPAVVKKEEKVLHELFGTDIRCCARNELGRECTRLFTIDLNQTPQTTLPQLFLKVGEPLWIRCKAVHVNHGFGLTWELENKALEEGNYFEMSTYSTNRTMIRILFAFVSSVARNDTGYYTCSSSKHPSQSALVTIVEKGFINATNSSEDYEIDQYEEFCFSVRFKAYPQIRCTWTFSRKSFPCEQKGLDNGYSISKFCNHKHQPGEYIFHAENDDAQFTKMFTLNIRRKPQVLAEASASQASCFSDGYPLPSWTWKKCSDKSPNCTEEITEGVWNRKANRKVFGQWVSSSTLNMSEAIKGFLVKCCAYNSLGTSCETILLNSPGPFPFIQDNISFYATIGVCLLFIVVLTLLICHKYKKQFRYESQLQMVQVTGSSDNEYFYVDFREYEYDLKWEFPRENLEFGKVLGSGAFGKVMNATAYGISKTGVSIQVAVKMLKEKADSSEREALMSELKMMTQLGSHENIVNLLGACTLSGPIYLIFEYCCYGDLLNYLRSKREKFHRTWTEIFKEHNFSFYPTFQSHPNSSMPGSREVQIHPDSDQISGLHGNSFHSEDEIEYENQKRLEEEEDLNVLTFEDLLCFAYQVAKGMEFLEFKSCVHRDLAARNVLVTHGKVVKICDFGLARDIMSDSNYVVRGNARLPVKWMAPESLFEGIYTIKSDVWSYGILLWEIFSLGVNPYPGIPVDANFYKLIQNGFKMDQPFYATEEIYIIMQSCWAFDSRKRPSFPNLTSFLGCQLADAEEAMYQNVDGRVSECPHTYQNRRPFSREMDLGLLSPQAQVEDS

[23] = system: RS4-11; test: Antiproliferative activity against human RS4:11 cells harboring wild-type FLT3 measured after 72 hrs by MTT assay; format: functional, cell-based; conditions: RS4-11, 72 h

Ratio IC50 [6]: > 40
fold change (FC) [11]: 0
fold change (FC) [15]: 0
Kd [22]: 4.37 nM
IC50 [23]: > 1000 nM
SMILES: C=CCn1cc(-c2ccc(NC(=O)Nc3cc(C(C)(C)C)on3)cc2)c2c(N)ncnc21
inhibition in vivo at 3 mg/kg [1]: 94.5%
TGI [2]: inactive
Activity [3]: 2.13%
viability at 0.01 µM [4]: 79.3%
fold change (FC) [5]: 0
Activity [7]: 9.57%
Activity [8]: 13.4%
inhibition in vivo at 1 mg/kg [9]: 70.5%
Activity [10]: 8.57%
Activity [12]: 23.5%
Activity [13]: 19.9%
Activity [14]: 3.01%
Activity [16]: 11.83%
Activity [17]: 0.61%
Activity [18]: 0.32%
Activity [19]: 5.67%
Activity [20]: 32.51%
fold change (FC) [21]: 0.1
